We go through 2 compounds from article PMC8507260, “A2E-induced inflammation and angiogenesis in RPE cells in vitro are modulated by PPAR-α, -β/δ, -γ, and RXR antagonists and by norbixin” (Aging (Albany NY), 2021).

The pIC50 is the IC50 on a negative log10 scale, so that one unit is a factor of ten.

Data set [1] deals with T1, PPAR-β/δ (Homo sapiens, UniProt Q03181).
T1 sequence (Q03181 1-441): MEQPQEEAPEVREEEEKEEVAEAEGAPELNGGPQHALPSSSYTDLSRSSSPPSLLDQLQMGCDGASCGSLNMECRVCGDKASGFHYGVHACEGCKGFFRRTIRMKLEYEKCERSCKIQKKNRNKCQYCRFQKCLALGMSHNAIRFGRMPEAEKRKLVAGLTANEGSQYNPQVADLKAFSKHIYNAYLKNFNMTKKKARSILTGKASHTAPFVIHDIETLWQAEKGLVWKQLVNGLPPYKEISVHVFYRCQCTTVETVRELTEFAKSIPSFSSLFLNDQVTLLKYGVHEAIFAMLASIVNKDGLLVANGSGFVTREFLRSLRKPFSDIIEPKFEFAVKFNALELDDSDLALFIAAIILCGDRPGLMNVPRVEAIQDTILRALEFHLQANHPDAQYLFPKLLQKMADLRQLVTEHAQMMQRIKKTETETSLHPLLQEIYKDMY
The experiment in a line: In vitro antagonist assay on PPAR-β/δ. In kind it is biochemical. An excerpt: The binding and activity of norbixin on PPARs remains controversial, thus, firstly, we performed competition experiments in vitro between norbixin and [^3H] GW7647, an agonist of PPAR-α, and [^3H] rosiglitazone, an agonist of PPAR-γ. […] Secondly, we tested whether norbixin could induce the transactivation of PPAR-α, -β/δ or -γ in the context of RPE cells in vitro by co-transfecting porcine RPE cells with a plasmid expressing each of the full-length PPAR isoforms and a plasmid expressing luciferase under the control of the PPAR response element. […] Then, we wanted to determine if norbixin could modulate the transactivation of PPAR isoforms induced by specific agonists.

The test system of data set [2] is RPE cells. Kind of data set: Cell viability of RPE cells in culture without blue light. The data set is classed as cell-based, porcine. Particulars: cell culture conditions for cytokine dosage, absence of blue light exposure.

pIC50: −log10 of the molar value.

Compound `CC(/C=C/C=C(C)/C=C/C(=O)O)=C\C=C\C=C(C)\C=C\C=C(C)\C=C\C(=O)O` (stereo in doubt) [norbixin, 9’-cis-norbixin] had a pIC50 in data set [1] of 5.00.

As for `CC(C=CC1=C(C)CCCC1(C)C)=CC=CC(C)=Cc1cc(C=CC=C(C)C=CC2=C(C)CCCC2(C)C)cc[n+]1CCO` [A2E, N-retinylidene-N-retinylethanolamine], in data set [2], the cell viability result is “not diminished”.
